Results taken from US20240148747A1, “SMALL MOLECULE ACTIVATORS OF YAP TRANSCRIPTIONAL ACTIVITY FOR REGENERATIVE ORGAN REPAIR” (THE SCRIPPS RESEARCH INSTITUTE, priority 2021, published 2024).
Read-outs that look alike come from different tables or passages of the source.

Tests used:
YAP = experiment: TEAD-LUC activation assay (293A-TEAD-LUC reporter); type: cell-based; settings: Homo sapiens
Excerpt: More specifically, we used a 293A cell line harboring a stably integrated cassette containing 8 copies of the TEAD binding element upstream of luciferase (8xGTII-LUC). These cells retain responsiveness to contact inhibition-induced decreases in YAP transcriptional output.^6 The TEAD-responsive reporter assay (called 293A-TEAD-LUC throughout) was adapted to 1536-well format and then used to screen a library of ˜738k compounds for YAP-inducing activity.
Additional compounds of the present disclosure were subjected to the assay described above.

in vitro = settings: human
[1] = test system: primary mouse epidermal keratinocytes; experiment: Colony formation of primary mouse epidermal keratinocytes on dermal feeder layer; type: cell-based; settings: 10-day growth period on dermal feeder layer
Excerpt: We evaluated the proliferative response of primary cells and tissues to compound 13 treatment. […] In addition, compound 13 treatment allowed for the secondary re-plated expansion of Rhodamine B-stained keratinocytes and the time-dependent expression of YAP-driven transcript Cyr61 (FIGS. 2A-C).

human skin equivalents = experiment: Wound healing in human skin equivalents (3 mm full thickness wound); type: cell-based
Excerpt: (§1) Compound 13 treatment, in an exemplary embodiment, promotes wound healing in human cells and induces a pro-proliferative effect on keratinocytes in the human skin surrogate species, the Yucatan mini pig. Accordingly, there was developed a gel-based formulation of compound 13, which allows for its stable room temperature storage and its topical delivery in high concentrations (up to about 1.5 weight percent).

[2] = Cytotoxicity in the TEAD-LUC activation assay; settings: human
YAP and TEAD proteins = experiment: YAP-TEAD association and YAP nuclear localization in cells; type: cell-based
Yucatan mini-pig skin = experiment: Topical delivery in the Yucatan mini pig; type: in vivo
Excerpt: as §1

[3] = test system: epidermis of wildtype adult C57BL/6 mice; experiment: Topical application to dorsal skin of C57BL/6 mice (epidermal remodeling); type: in vivo, mouse
Method: When applied topically to the dorsal skin of wildtype adult C57BL/6 mice over the course of ten days, compound 13 (10 uM) promoted a dramatic expansion of keratinocytes and K14-positive precursors as assessed by […] and anti-K14 histological staining at study end (FIG. 2D).
as §1

[4] = test system: YAP-controlled transcripts (ANRKD1, CYR61, CTGF); experiment: YAP-controlled transcript levels in 293A and other human cell lines; type: cell-based

Row | EC50 (YAP; Table 3, read-out: TEAD-LUC activation assay EC50) [µM] | EC50 (YAP; absence of serum, high cell density, read-out: EC50 of luciferase activity induction in 293A-TEAD-LUC cells) [µM] | EC50 (YAP; presence of serum, high cell density, read-out: EC50 of luciferase activity induction in 293A-TEAD-LUC cells) [µM] | Structure (SMILES) | EC50 (YAP; Table 4, read-out: TEAD-LUC activation assay EC50) [µM] | IC50 (in vitro) [µM] | colony forming potential [1] [fold] | keratinocyte hyperplasia and wound contraction (human skin equivalents) | IC50 [2] [µM] | association of YAP and TEAD proteins in cells (YAP and TEAD proteins) | nuclear localization of YAP (YAP and TEAD proteins; in response to increased cell density) | epidermal hyperplasia, dermal hyperplasia, YAP-dependent gene expression (Yucatan mini-pig skin) | YAP-dependent transcripts Ctgf, Cyr61, and Ankrd1 ([3]; endpoint of the experiment) | epidermal thickening, gel-based formulation versus drug in acetone or DMSO ([3]; topical delivery, mouse) | epidermal thickness ([3]; topical, ten days, 10 uM, wildtype mice) | KI-67 positive keratinocytes ([3]; topical, ten days, study end) | levels of YAP-controlled transcripts (ANRKD1, CYR61, CTGF) ([4]; 293A cells and MCF-10A, HEK293T, H69, HaCaT) | levels of YAP itself (YAP1) ([4]; 293A cells and other human cell lines)
1 |  |  |  | CN1[C@H]2CC[C@@H]1CN(C(=O)c1cc(-c3ccccc3)on1)CC2 [Compound 129] | > 20 | > 20 |  |  |  |  |  |  |  |  |  |  |  | 
2 | 1 | 1.6 | 1.5 | O=C(NCCCc1nccs1)c1cc(-c2ccccc2)on1 [Compound 13, 5-phenyl-N-(3-(thiazol-2-yl)propyl)isoxazole-3-carboxamide] |  |  | ~10 | promoted the hyperplasia of keratinocytes and promoted wound contraction | 13.7 | dose-dependently promoted | induced the nuclear localization of YAP | promoted epidermal hyperplasia, dermal hyperplasia, and YAP-dependent gene expression | robust upregulation | to a more significant degree | approximate doubling | substantially increased | robustly increased | did not augment
